This passage reports IC50 and inhibition in vivo results from patent US20110178041A1, “HETEROCYCLIC BIARYL DERIVATIVE AND PDE INHIBITOR COMPRISING SAME AS ACTIVE INGREDIENT” (priority 2008, published 2011).

For assay [1], the target named is T1, PDE4B catalytic zone (PDE4Bcat) (Homo sapiens, UniProt Q07343).
T1 construct: made in house; host or cells: Sf9 insect cells (baculovirus, Bac-to-Bac / Gateway)
Kind of assay: Phosphodiesterase 4 inhibitory activity ([3H]-cAMP, recombinant PDE4Bcat). The settings on record: 30° C. 20 minutes, read-out: IC50 (μmol/L) PDE4. The class given is biochemical.

For assay [2], the target named is T2, PDE3A catalytic zone (PDE3Acat) (Homo sapiens, UniProt Q14432).
T2 construct: made in house; host or cells: Sf9 insect cells (baculovirus, Bac-to-Bac / Gateway)
Kind of assay: Phosphodiesterase 3-inhibitory activity ([3H]-cAMP, recombinant PDE3Acat). Type of assay: biochemical. As to conditions: 30° C. 20 minutes, read-out: IC50 value, PDE3.

Assay [3] has as its system LPS-induced pulmonary inflammation (total leukocytes in BALF). Nature of the assay: LPS-induced pulmonary inflammation in rats. Type of assay: in vivo. As to conditions: Leukocyte; rat, 3 mg/kg oral one hour before LPS inhalation, BALF 3 hours after LPS; read-out: rate of inhibition of total number of leukocytes in BALF. The method, then: One hour before the inhalation of lipopolysaccharide from E. coli serotype 055:B5 (LPS), each candidate compound was orally administered to each test rat in a dose of 3 mg/kg, and then the test animal was allowed to inhale an LPS solution (50 mL) over 30 minutes, while the solution was atomized using a nebulizer. After 3 hours from the LPS-inhalation, the rats were euthanized by the administration of a 20% urethane solution (5 ml/rat, i.p.). The bronchial cannula was inserted through the trachea. Broncoalveolar lavage was performed by injecting 5 ml physiological saline, three consecutive times using a 5 mL volume syringe. The operations were repeated twice and these physiological saline samples were recovered as broncoalveolar lavage fluid (BALF). Each of the BALF thus recovered was centrifuged at 1200 rpm and 4° C. for 10 minutes (Hirtachi; himac […]), the resulting residue was again suspended in 10 mL of 0.1% bovine serum albumin-containing physiological saline, an equivalent volume of Turk's diluting fluid was added to the suspension to thus stain the leukocytes present therein and the total number of leukocytes was determined under the microscopic observation to thus calculate the rate of inhibition.

Molecules are shown by their SMILES.

T1 sequence (Q07343 330-659 limits assumed): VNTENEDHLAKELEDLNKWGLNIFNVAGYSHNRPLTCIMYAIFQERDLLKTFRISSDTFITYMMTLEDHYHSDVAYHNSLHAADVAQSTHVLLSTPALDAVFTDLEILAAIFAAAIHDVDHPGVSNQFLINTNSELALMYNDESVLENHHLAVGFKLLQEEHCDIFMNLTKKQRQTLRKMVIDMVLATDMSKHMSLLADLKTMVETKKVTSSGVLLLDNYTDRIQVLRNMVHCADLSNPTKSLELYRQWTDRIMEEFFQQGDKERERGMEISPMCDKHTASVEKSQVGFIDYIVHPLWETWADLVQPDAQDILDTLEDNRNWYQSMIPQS
T2 sequence (Q14432 674-1093 limits assumed): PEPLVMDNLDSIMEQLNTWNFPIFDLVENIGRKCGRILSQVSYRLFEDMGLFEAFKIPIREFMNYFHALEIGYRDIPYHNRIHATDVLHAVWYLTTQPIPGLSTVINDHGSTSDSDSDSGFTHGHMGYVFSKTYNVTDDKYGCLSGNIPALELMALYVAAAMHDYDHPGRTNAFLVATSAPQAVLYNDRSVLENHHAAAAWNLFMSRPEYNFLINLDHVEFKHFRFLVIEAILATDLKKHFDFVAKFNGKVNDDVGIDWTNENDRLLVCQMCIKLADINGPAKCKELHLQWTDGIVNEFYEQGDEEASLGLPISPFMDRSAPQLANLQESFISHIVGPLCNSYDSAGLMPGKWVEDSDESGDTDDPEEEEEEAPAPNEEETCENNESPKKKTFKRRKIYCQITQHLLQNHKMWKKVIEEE

For the molecule `COc1ccc(-c2ccc3c(c2)CCNC3=O)c2cc(C(F)(F)F)nn12` [Example 58, 6-(7-Methoxy-2-trifluoromethylpyrazolo[1,5-a]pyridin-4-yl)-3,4-dihydroisoquinolin-1(2H)-one], the IC50 is 0.01 to 0.1 µmol/L in assay [1] and above 1000 nM in assay [2]. Besides, the inhibition in vivo at 3 mg/kg in assay [3] is at least 60%.
As for `COc1ccc(-c2ccc3c(c2)CNC3=O)c2cc(C(F)(F)F)nn12` [Example 59, 5-(7-Methoxy-2-trifluoromethylpyrazolo[1,5-a]pyridin-4-yl)isoindolin-1-one], the IC50 in assay [1] was 0.01 to 0.1 µmol/L; in assay [2], above 1000 nM. Also, the inhibition in vivo at 3 mg/kg in assay [3] was at least 60%.
Regarding `COc1ccc(-c2ccc3c(=O)[nH]cc(Cl)c3c2)c2cc(C(F)(F)F)nn12` [Example 60, 4-Chloro-6-(7-methoxy-2-trifluoromethylpyrazolo[1,5-a]pyridin-4-yl)isoquinolin-1(2H)-one], the results for the IC50 in assay [1] and in assay [2] were below 0.01 µmol/L and above 1000 nM, respectively. Moreover, the inhibition in vivo at 3 mg/kg in assay [3] is at least 60%.
Take `COc1ccc(-c2ccc3c(c2)CCNC3=O)c2c(Cl)c(C(F)(F)F)nn12` [Example 62, 6-(3-Chloro-7-methoxy-2-trifluoromethylpyrazolo[1,5-a]pyridin-4-yl)-3,4-dihydroisoquinolin-1(2H)-one]: the IC50 in assay [1] was below 0.01 µmol/L. In addition, in assay [3], the inhibition in vivo at 3 mg/kg was at least 60%.
In the case of `CNc1ccc(-c2ccc3c(c2)CCNC3=O)c2cc(C(F)(F)F)nn12` [Example 63, 6-(7-Methylamino-2-trifluoromethylpyrazolo[1,5-a]pyridin-4-yl)-3,4-dihydroisoquinolin-1(2H)-one], the IC50 was below 0.01 µmol/L in assay [1] and above 1000 nM in assay [2]. The inhibition in vivo at 3 mg/kg in assay [3] is at least 60%.
For the molecule `CNc1ccc(-c2ccc3[nH]c(=O)ccc3c2)c2cc(C(F)(F)F)nn12` [Example 64, 6-(7-Methylamino-2-trifluoromethylpyrazolo[1,5-a]pyridin-4-yl)quinolin-2(1H)-one], the IC50 in assay [1] was below 0.01 µmol/L; in assay [2], above 1000 nM. For the same molecule, the inhibition in vivo at 3 mg/kg in assay [3] was at least 60%.
For `COc1ccc(-c2ccc3[nH]c(=O)ccc3c2)n2c(Cl)c(C(F)(F)F)nc12` [Example 89, 6-(3-Chloro-8-methoxy-2-(trifluoromethyl)imidazo[1,2-a]pyridin-5-yl)quinolin-2(1H)-one], the IC50 was below 0.01 µmol/L in assay [1] and above 1000 nM in assay [2]. Besides, the inhibition in vivo at 3 mg/kg in assay [3] was at least 60%.
Take `COc1ccc(-c2ccc3c(c2)CCC(=O)N3C)c2cc(C(F)(F)F)nn12` [Example 102, 6-(7-Methoxy-2-trifluoromethylpyrazolo[1,5-a]pyridin-4-yl)-1-methyl-3,4-dihydroquinolin-2(1H)-one]: the IC50 is 0.01 to 0.1 µmol/L in assay [1] and above 1000 nM in assay [2]. Moreover, in assay [3], the inhibition in vivo at 3 mg/kg is at least 60%.
For the molecule `COc1ccc(-c2ccc3c(ccc(=O)n3C)c2)c2c(Cl)c(C(F)(F)F)nn12` [Example 115, 6-(3-Chloro-7-methoxy-2-trifluoromethylpyrazolo[1,5-a]pyridin-4-yl)-1-methylquinolin-2(1H)-one], the values for the IC50 in assay [1] and in assay [2] were below 0.01 µmol/L and above 1000 nM, respectively. Moreover, in assay [3], the inhibition in vivo at 3 mg/kg is at least 60%.
The like results for `COc1ccc(-c2ccc3c(c2)CCNC3=O)c2cc(C3CC3)nn12` [Example 121, 6-(2-Cyclopropyl-7-methoxypyrazolo[1,5-a]pyridin-4-yl)-3,4-dihydroisoquinolin-1(2H)-one] were, in that order, 0.01 to 0.1 µmol/L, above 1000 nM and at least 60%.
Regarding `Nc1ccc(-c2ccc3c(=O)[nH]cc(Cl)c3c2)c2cc(C(F)(F)F)nn12` [Example 141, 6-(7-Amino-2-trifluoromethylpyrazolo[1,5-a]pyridin-4-yl)-4-chloro isoquinolin-1(2H)-one], the IC50 in assay [1] fell in the range of 0.01 to 0.1 µmol/L.
In the case of `CNc1ccc(-c2ccc3[nH]c(=O)ccc3c2)n2c(Cl)c(C(F)(F)F)nc12` [Example 142, 6-(3-Chloro-8-methylamino-2-trifluoromethylimidazo[1,2-a]pyridin-5-yl)quinolin-2(1H)-one], the IC50 in assay [1] was below 0.01 µmol/L; in assay [2], above 1000 nM. Also, the inhibition in vivo at 3 mg/kg in assay [3] was at least 60%.
For `CNc1ccc(-c2ccc3c(c2)CCNC3=O)n2c(Cl)c(C(F)(F)F)nc12` [Example 143, 6-(3-Chloro-8-methylamino-2-trifluoromethylimidazo[1,2-a]pyridin-5-yl)-3,4-dihydroisoquinolin-1(2H)-one], the results for the IC50 in assay [1] and in assay [2] were below 0.01 µmol/L and above 1000 nM, respectively. Also, the inhibition in vivo at 3 mg/kg in assay [3] was at least 60%.
Regarding `CNc1ccc(-c2ccc3c(=O)[nH]cc(Cl)c3c2)n2cc(C(F)(F)F)nc12` [Example 144, 4-Chloro-6-(8-(methylamino)-2-trifluoromethylimidazo[1,2-a]pyridin-5-yl)isoquinolin-1(2H)-one], the IC50 in assay [1] was below 0.01 µmol/L.
In the case of `CNc1ccc(-c2ccc3c(=O)[nH]cc(Cl)c3c2)n2c(Cl)c(C(F)(F)F)nc12` [Example 145, 4-Chloro-6-(3-chloro-8-(methylamino)-2-trifluoromethylimidazo[1,2-a]pyridin-5-yl)isoquinolin-1(2H)-one], the IC50 in assay [1] was below 0.01 µmol/L.
Consider `Nc1ccc(-c2ccc3c(=O)[nH]cc(Cl)c3c2)n2cc(C(F)(F)F)nc12` [Example 146, 6-(8-Amino-2-trifluoromethylimidazo[1,2-a]pyridin-5-yl)-4-chloro-isoquinolin-1(2H)-one], for which the IC50 in assay [1] is 0.01 to 0.1 µmol/L.
